Results on five compounds are retold here after patent US8492342B2, “Preprocalcitonin antigen T epitopes” (Institut Gustave Roussy, priority 2007, dated 2013).

Assay [1] concerns IGR-Heu tumor cells. Briefly: Lysis (4 h 51Cr-release) by CTL clones of siRNA-electroporated IGR-Heu target cells. The assay is classed as cell-based, human. The note with it: CTL Heu161, FIG. 5C. Here is the method:
(§1) FIG. 5: Processing of the preprocalcitonin16-25 antigenic peptide involves SP and SPP. A. IGR-Heu tumor cells were incubated for 2 h at 37° C. with the serine protease inhibitor dichloroisocoumarin (DCI) at 250 μM, before addition of anti-preprocalcitonin (left panel) or anti-α-actinin-4 (right panel) CTL clones. B. Analysis of SPP mRNA expression by real-time RT-PCR analysis. Total RNA extracted from IGR-Heu tumor cells, electroporated or not with siRNA targeting SPP (siRNA-S1, siRNA-S2), was reverse-transcribed and quantified by TaqMan as described in Materials and Methods. C. Effect of SPP extinction on tumor cell recognition. Lytic activity of CTL clones Heu161 and Heu127 against IGR-Heu target cells, electroporated or not with siRNA-S1, siRNA-S2 or control siRNA, determined by a conventional 4 h ^51Cr-release assay at the indicated E/T ratios. Two representative experiments of six are shown for CTL clone Heu161. D. Production of IFNγ by Heu161 and Heu127 CTL clones stimulated with tumor cells electroporated or not with siRNA-S1 or control siRNA. E. The preprocalcitonin16-25 antigenic peptide is located at the C-terminus of the signal sequence of the calcitonin hormone precursor. […]
(§2) Cytotoxic activity was measured by a conventional 4-h ^51Cr-release assay using triplicate cultures in round-bottomed 96-well plates. Percent specific cytotoxicity was calculated conventionally; SD were <5%. […]

Assay [2] relates to SPP. In words: SPP expression in IGR-Heu cells electroporated with siRNA (real-time RT-PCR; protein). The assay is classed as cell-based, human. The conditions noted are these: for SPP expression at RNA level: 50 nM siRNA, 72 h, FIG. 5B; for SPP expression at protein level: data not shown. Here is the method:
FIG. 5: Processing of the preprocalcitonin16-25 antigenic peptide involves SP and SPP. A. IGR-Heu tumor cells were incubated for 2 h at 37° C. with the serine protease inhibitor dichloroisocoumarin (DCI) at 250 μM, before addition of anti-preprocalcitonin (left panel) or anti-α-actinin-4 (right panel) CTL clones. B. Analysis of SPP mRNA expression by real-time RT-PCR analysis. Total RNA extracted from IGR-Heu tumor cells, electroporated or not with siRNA targeting SPP (siRNA-S1, siRNA-S2), was reverse-transcribed and quantified by TaqMan as described in Materials and Methods. C. Effect of SPP extinction on tumor cell recognition. Lytic activity of CTL clones Heu161 and Heu127 against IGR-Heu target cells, electroporated or not with siRNA-S1, siRNA-S2 or control siRNA, determined by a conventional 4 h ^51Cr-release assay at the indicated E/T ratios. Two representative experiments of six are shown for CTL clone Heu161. D. Production of IFNγ by Heu161 and Heu127 CTL clones stimulated with tumor cells electroporated or not with siRNA-S1 or control siRNA. E. The preprocalcitonin16-25 antigenic peptide is located at the C-terminus of the signal sequence of the calcitonin hormone precursor. The optimal peptide recognized by CTL clone Heu161 is boxed. Arrows indicate the signal peptidase (SP) and the approximate signal peptide peptidase (SPP) cleavage sites. The n, h and c regions in the preprocalcitonin signal peptide were predicted using SignalP 3.0 software.
For SPP inhibition, we first tried the cysteine protease inhibitor Z-LL2 ketone (Calbiochem, Darmstadt, Germany), which was reported to specifically block SPP activity (WEIHOFEN et al., J Biol Chem, 275, 30951-6, 2000). No conclusive results were obtained in functional assays. We thus used siRNA targeting human SPP, siRNA-S1 (5-GACAUGCCUGAAACAAUCAtt-3; SEQ ID NO: 3) and siRNA-S2 (5-UGAUUGUUUCAGGCAUGUCtg-3; SEQ ID NO: 4), purchased from Ambion (Austin, Tex. USA). Non-targeting siRNA (Ambion) were used as negative control (siRNA Control). Briefly, IGR-Heu cells were transfected by electroporation with 50 nM siRNA in a Gene Pulser Xcell Electroporation System (Bio-Rad; 300 V, […]) as previously described (LE FLOC'H et al., J Exp Med, 2007) and then allowed to grow for 72 h.
For SPP mRNA expression, total RNA from IGR-Heu cells, transfected or not with siRNA-S 1 and siRNA-S2 targeting SPP, was extracted, reverse-transcribed and quantified by real-time RT-PCR analysis (TaqMan). PCR primers and probe were designed by Applied Biosystems and used according to the manufacturer's recommendations. The amount of RNA sample was normalized by amplification of an endogenous control (18S). […]
On the technique in general: Quantitative PCR measures a nucleic acid by following its amplification.

Assay [3] deals with IGR-Heu tumor cells. In words: SP inhibition: lysis by CTL clones of DCI-treated IGR-Heu tumor cells. The assay is classed as cell-based, human. The note with it: pre-incubation of IGR-Heu, 250 μM, 2 h 37° C.; FIG. 5A. How it is done:
as §1, §2

In assay [4] the target is T1, human TAP (Homo sapiens, UniProt Q03518+Q03519).
T1 construct: endogenous in cells; host or cells: 293-EBNA cells
T1 sequence (Q03518 1-748): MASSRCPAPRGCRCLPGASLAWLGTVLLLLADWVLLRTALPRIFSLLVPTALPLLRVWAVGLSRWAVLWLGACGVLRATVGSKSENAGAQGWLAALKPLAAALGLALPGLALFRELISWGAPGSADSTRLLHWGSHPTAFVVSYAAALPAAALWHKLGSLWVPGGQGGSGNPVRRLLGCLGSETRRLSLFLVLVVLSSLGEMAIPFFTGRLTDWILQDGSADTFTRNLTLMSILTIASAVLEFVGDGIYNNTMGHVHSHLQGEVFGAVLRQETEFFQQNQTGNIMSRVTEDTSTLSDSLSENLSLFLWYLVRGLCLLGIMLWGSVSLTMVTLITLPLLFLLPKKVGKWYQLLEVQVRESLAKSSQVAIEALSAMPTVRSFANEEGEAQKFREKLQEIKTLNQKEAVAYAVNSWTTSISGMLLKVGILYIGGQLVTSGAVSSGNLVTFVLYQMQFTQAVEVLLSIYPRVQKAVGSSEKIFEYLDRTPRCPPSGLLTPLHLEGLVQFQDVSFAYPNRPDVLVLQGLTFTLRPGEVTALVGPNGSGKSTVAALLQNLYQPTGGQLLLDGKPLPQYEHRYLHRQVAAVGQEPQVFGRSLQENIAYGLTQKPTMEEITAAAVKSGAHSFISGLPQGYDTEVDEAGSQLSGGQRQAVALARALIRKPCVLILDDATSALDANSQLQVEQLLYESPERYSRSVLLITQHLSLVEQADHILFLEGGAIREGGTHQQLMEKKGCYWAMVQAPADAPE
T1 sequence (Q03519 1-686): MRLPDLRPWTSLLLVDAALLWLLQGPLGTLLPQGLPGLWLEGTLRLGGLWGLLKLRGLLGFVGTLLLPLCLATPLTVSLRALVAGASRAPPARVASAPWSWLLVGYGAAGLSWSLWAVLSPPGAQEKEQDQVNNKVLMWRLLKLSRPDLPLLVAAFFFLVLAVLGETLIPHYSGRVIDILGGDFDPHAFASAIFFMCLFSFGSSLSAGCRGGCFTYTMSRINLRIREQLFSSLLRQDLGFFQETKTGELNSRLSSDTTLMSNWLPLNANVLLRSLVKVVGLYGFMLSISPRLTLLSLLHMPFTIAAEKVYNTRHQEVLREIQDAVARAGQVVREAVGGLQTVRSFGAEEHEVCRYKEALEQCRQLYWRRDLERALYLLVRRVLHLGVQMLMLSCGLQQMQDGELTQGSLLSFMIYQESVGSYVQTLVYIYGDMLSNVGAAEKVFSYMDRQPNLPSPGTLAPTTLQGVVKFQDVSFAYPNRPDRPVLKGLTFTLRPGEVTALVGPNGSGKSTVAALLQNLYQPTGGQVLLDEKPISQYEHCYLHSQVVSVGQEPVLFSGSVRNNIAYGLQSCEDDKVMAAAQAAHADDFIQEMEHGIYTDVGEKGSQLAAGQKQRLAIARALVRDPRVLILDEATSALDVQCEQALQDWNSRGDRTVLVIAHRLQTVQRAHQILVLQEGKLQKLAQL
Briefly: TAP involvement: CTL recognition of 293-EBNA transfectants cotransfected with ICP47. The assay is classed as cell-based. How it is done:
FIG. 4: Processing of the preprocalcitonin16-25 peptide is proteasome- and TAP-independent. A. IGR-Heu target cells were incubated for 2 h at 37° C. in the presence or absence of the proteasome-specific inhibitor epoxomicin, and then Heu161 cells were added. The autologous Heu127 clone, recognizing on IGR-Heu a proteasome-dependent mutated α-actinin-4 peptide, was included as a positive control. TNFβ released in medium after 24 h of culture was measured as above. B. 293-EBNA cells were cotransfected with pCEP4 containing either cDNA 150 (upper panel) or the mutated α-actinin-4 cDNA (lower panel), with pcDNA3.1 containing an HLA-A*0201 construct, and with various amounts of vector pBJi-neo containing IPC47 cDNA. CTL clones Heu161 (upper panel) or Heu127 (lower panel) were then added. Controls included 293-EBNA cells transfected with HLA-A2 or pBJi-neo-IPC47 alone, and incubation of transfectants with either preprocalcitonin or α-actinin-4 peptides. Data shown are representative of four independent experiments.
The involvement of TAP was tested by cotransfecting into 293-EBNA cells constructs coding for the antigenic peptide, for HLA-A2, and for the immediate-early protein ICP47 of herpes simplex virus type 1, which binds to and inhibits human TAP (BANKS et al., Virology, 200, 236-45, 1994).

The test system of assay [5] is CTL clone Heu161. Briefly: CTL stimulation (TNF release) by synthetic peptides loaded on HLA-A2+ MZ2-MEL.3.1 melanoma cells. The class given is cell-based, human. How it is done:
FIG. 3: Identification of the antigenic peptide recognized by CTL clone Heu161. A. CTL stimulation with purified synthetic peptides. Peptides were loaded on allogeneic HLA-A2^+ MZ2-MEL.3.1 melanoma cells for 60 min at room temperature before addition of CTL clone Heu161. TNF release was measured 16 h later. Empty circles represent the results obtained with peptide SEQ ID NO: 1, full circles represent the results obtained with peptide SEQ ID NO: 2, empty squares represent the results obtained with peptide SEQ ID NO: 24, full squares represent the results obtained with peptide SEQ ID NO: 25 and empty diamonds represent the results obtained with peptide SEQ ID NO: 26. B. Lytic activity of CTL clone on peptide-pulsed cells. ^51Cr-labeled Heu-EBV-B cells were incubated over 60 min with the indicated concentrations of peptides before addition of CTL clone Heu161 at an E/T cell ratio of 10:1. Chromium release was measured after 4 h. Empty circles represent the results obtained with peptide SEQ ID NO: 1, full circles represent the results obtained with peptide SEQ ID NO: 2
TNFβ was detected by measuring the cytotoxicity of the culture medium on TNF-sensitive WEHI-164c13 cells with a MTT colorimetric assay (ESPEVIK & NISSEN-MEYER, J Immunol Methods, 95, 99-105, 1986).
We then prepared a series of calcitonin cDNA fragments truncated at their 5′ end and engineered to contain an initiation codon and a Kozak consensus sequence. […] Further trimming narrowed down the peptide-encoding region to residues 9-38 (FIG. 2B). Among a set of overlapping peptides covering this region, only two were recognized by CTL clone Heu161: VLLQAGSLHA (SEQ ID NO: 1) and LVLLQAGSLHA (SEQ ID NO: 2), which are identical, but with an additional leucine in the latter peptide. […] In a lysis assay, the decamer was slightly more efficient than the 11-mer peptide by a factor of about three (FIG. 3B). We concluded that the optimal antigenic peptide recognized by CTL clone Heu161 was VLLQAGSLHA (SEQ ID NO: 1) or preprocalcitonin16-25. This peptide corresponds exactly to the C-terminal part of the preprocalcitonin signal peptide (LE MOULLEC et al., FEBS Lett, 167, 93-7, 1984).

As to 5-GACAUGCCUGAAACAAUCAtt-3 [siRNA-S1], in assay [1], the “sensitivity of tumor cells to lysis by anti-preprocalcitonin CTL clone” value was “strong decrease”. For the same compound, in assay [2], the “SPP expression at RNA level” value was “specifically inhibit SPP expression” and the “SPP expression at protein level” value is “specifically inhibit SPP expression”.

As to 5-UGAUUGUUUCAGGCAUGUCtg-3 [siRNA-S2], the “sensitivity of tumor cells to lysis by anti-preprocalcitonin CTL clone” value in assay [1] is “strong decrease”. In assay [2], the “SPP expression at RNA level” value is recorded as “specifically inhibit SPP expression” and the “SPP expression at protein level” value was “specifically inhibit SPP expression”.

On to `O=c1oc(Cl)c(Cl)c2ccccc12` [DCI, dichloroisocoumarin], for which, in assay [3], the “effect on lysis by anti-preprocalcitonin CTL clone” value was “totally resistant to lysis” and the “effect on recognition by anti-α-actinin-4 CTL clone” value is listed as “only a moderate effect”.

Regarding “ICP47: immediate-early protein ICP47 of herpes simplex virus type 1, which binds to and inhibits human TAP; expressed by cotransfection”, in assay [4] (cDNA 150 + HLA-A2, FIG. 4B), the “effect on recognition of transfectants by anti-preprocalcitonin CTLs” value is recorded as “no detectable effect”. Also, the “effect on recognition of transfectants by anti-α-actinin-4 CTL clone” value in assay [4] (mutated α-actinin-4 cDNA + HLA-A2, FIG. 4B) is reported as “strongly inhibited”.

Regarding LVLLQAGSLHA [SEQ ID NO: 2], the EC50 in assay [5] (HLA-A2+ melanoma cells loaded 60 min, TNF release after 16 h, FIG. 3A, read-out: peptide concentration giving half-maximal effect (sensitization to recognition by CTL Heu161)) was around 10 nM. Also, in assay [5] (overlapping synthetic peptides of preprocalcitonin), the “recognition of peptide by CTL clone Heu161” value is “recognized”.
